Test results: article PMC8286840, “Identifying SARS-CoV-2 antiviral compounds by screening for small molecule inhibitors of Nsp3 papain-like protease” (Biochemical Journal, 2021)
Structures can show the parent of a compound that is named as a salt. Where two headings read alike, the source gives them in different places.

Assays:
[1] = target: T1, SARS-CoV-2 PLpro (nsp3 1564–1878) (Severe acute respiratory syndrome coronavirus 2, UniProt P0DTD1); assay: biochemical; parameters: FRET-quenched peptide (Pro3) cleavage by PLpro, 10 min pre-incubation, slope over 20 min, normalised to no-compound control; details: low concentration screen, read-out: % of control remaining
[2] = target: T1, SARS-CoV-2 PLpro (nsp3 1564–1878); assay: biochemical; parameters: FRET-quenched peptide (Pro3) cleavage by PLpro, 10 min pre-incubation, slope over 20 min, normalised to no-compound control; details: high concentration screen, read-out: % of control remaining

O=C(O)C(O)c1cccc(O)c1 (stereo not shown) [3-Hydroxymandelic Acid]
remaining activity at 1.25 µM ([1]; Well no.=6879): 100% | remaining activity at 3.75 µM ([2]; Well no.=6879): 98.2%

O=C(O)c1ncccc1O [3-Hydroxypicolinic acid]
remaining activity at 1.25 µM ([1]; Well no.=6885): 68.8% | remaining activity at 3.75 µM ([2]; Well no.=6885): 92.3%

O=C(O)Cc1c[nH]c2ccccc12 [3-Indoleacetic acid]
remaining activity at 1.25 µM ([1]; Well no.=6255): 108% | remaining activity at 3.75 µM ([2]; Well no.=6255): 113%

O=C(O)CCc1c[nH]c2ccccc12 [3-Indolepropionic acid]
remaining activity at 1.25 µM ([1]; Well no.=6597): 99.7% | remaining activity at 3.75 µM ([2]; Well no.=6597): 102%

N[C@@H](Cc1ccc(O)c(I)c1)C(=O)O [3-Iodo-L-tyrosine]
remaining activity at 1.25 µM ([1]; Well no.=919): 103% | remaining activity at 3.75 µM ([2]; Well no.=919): 104%

CC(C)Cn1c(=O)n(C)c(=O)c2[nH]cnc21 [3-Isobutyl-1-methylxanthine]
remaining activity at 1.25 µM ([1]; Well no.=773): 108% | remaining activity at 3.75 µM ([2]; Well no.=773): 106%

COc1cccc(C(=O)O)c1 [3-Methoxybenzoic acid]
remaining activity at 1.25 µM ([1]; Well no.=6587): 100% | remaining activity at 3.75 µM ([2]; Well no.=6587): 98.4%

COc1cc(CCN)ccc1O [3-Methoxytyramine]
remaining activity at 1.25 µM ([1]; Well no.=6773): 107% | remaining activity at 3.75 µM ([2]; Well no.=6773): 97.4%

CCC(C)C(=O)C(=O)O (stereo not shown) [3-Methyl-2-oxovaleric acid]
remaining activity at 1.25 µM ([1]; Well no.=6977): 100% | remaining activity at 3.75 µM ([2]; Well no.=6977): 101%

Cc1nnc2ccc(-c3cccc(C(F)(F)F)c3)nn12 [3-Methyl-6-(3-[trifluoromethyl]phenyl)-1,2,4-triazolo[4,3-b]pyridazine]
remaining activity at 1.25 µM ([1]; Well no.=828): 106% | remaining activity at 3.75 µM ([2]; Well no.=828): 105%

Cn1cnc(N)c2ncnc1-2 [3-Methyladenine]
remaining activity at 1.25 µM ([1]; Well no.=5079): 104% | remaining activity at 1.25 µM ([1]; Well no.=7447): 103% | remaining activity at 3.75 µM ([2]; Well no.=7447): 106%

CC(CCC(=O)O)CC(=O)O (stereo not shown) [3-Methyladipic acid]
remaining activity at 1.25 µM ([1]; Well no.=6533): 107% | remaining activity at 3.75 µM ([2]; Well no.=6533): 98.2%

Cn1c(=N)ccn([C@@H]2O[C@H](CO)[C@@H](O)[C@H]2O)c1=O [3-Methylcytidine]
remaining activity at 1.25 µM ([1]; Well no.=7960): 97.2% | remaining activity at 3.75 µM ([2]; Well no.=7960): 98.7%

CC(CC(=O)O)CC(=O)O [3-Methylglutaric acid]
remaining activity at 1.25 µM ([1]; Well no.=6835): 100% | remaining activity at 3.75 µM ([2]; Well no.=6835): 99.3%

Cn1c(=O)ccn([C@@H]2O[C@H](CO)[C@@H](O)[C@H]2O)c1=O [3-Methyluridine]
remaining activity at 1.25 µM ([1]; Well no.=7067): 93.2% | remaining activity at 1.25 µM ([1]; Well no.=7918): 101% | remaining activity at 3.75 µM ([2]; Well no.=7067): 91.5% | remaining activity at 3.75 µM ([2]; Well no.=7918): 101%

Cn1c(=O)[nH]c(=O)c2[nH]cnc21 [3-Methylxanthine]
remaining activity at 1.25 µM ([1]; Well no.=6777): 106% | remaining activity at 3.75 µM ([2]; Well no.=6777): 102%

N=c1c[n+](N2CCOCC2)[n-]o1 [3-Morpholinosydnonimine hydrochloride]
remaining activity at 1.25 µM ([1]; Well no.=1041): 102% | remaining activity at 3.75 µM ([2]; Well no.=1041): 103%

O=C(O)CC[N+](=O)[O-] [3-Nitropropionic acid]
remaining activity at 1.25 µM ([1]; Well no.=953): 100% | remaining activity at 3.75 µM ([2]; Well no.=953): 99.4%

O=C(O)CC(=O)CC(=O)O [3-Oxopentanedioic acid]
remaining activity at 1.25 µM ([1]; Well no.=7499): 97.9% | remaining activity at 3.75 µM ([2]; Well no.=7499): 99.7%

NCC#Cc1ccccc1 [3-Phenylpropargylamine hydrochloride]
remaining activity at 1.25 µM ([1]; Well no.=1405): 103% | remaining activity at 3.75 µM ([2]; Well no.=1405): 101%

CN1[C@@H]2CC[C@H]1C[C@@H](OC(=O)c1cc(Cl)cc(Cl)c1)C2 [3-Tropanyl-3,5-dichlorobenzoate]
remaining activity at 1.25 µM ([1]; Well no.=1278): 110% | remaining activity at 3.75 µM ([2]; Well no.=1278): 108%

C[N+]1(C)C2CCC1CC(OC(=O)c1c[nH]c3ccccc13)C2 (stereo not shown) [3-Tropanylindole-3-carboxylate methiodide]
remaining activity at 1.25 µM ([1]; Well no.=1520): 91.9% | remaining activity at 3.75 µM ([2]; Well no.=1520): 90.6%

CCOC(OCC)P(=O)(O)CCCNCc1ccc(Cl)c(Cl)c1 [3-[(3,4-dichlorobenzyl)amino]propyl(diethoxymethyl)phosphinic acid]
remaining activity at 1.25 µM ([1]; Well no.=6020): 98.7% | remaining activity at 3.75 µM ([2]; Well no.=6020): 93.6%

C[C@]12CC[C@@H](O)C[C@@H]1CC[C@@H]1[C@@H]2CC[C@]2(C)[C@@H](C(=O)CO)CC[C@@H]12 [3-alpha,21-Dihydroxy-5-alpha-pregnan-20-one]
remaining activity at 1.25 µM ([1]; Well no.=856): 99.8% | remaining activity at 3.75 µM ([2]; Well no.=856): 104%

NC(=S)NN=Cc1ncccc1N [3-amino-2-pyridinecarbaldehyde thiosemicarbazone]
remaining activity at 1.25 µM ([1]; Well no.=5964): 98.3% | remaining activity at 3.75 µM ([2]; Well no.=5964): 97.9%

NC(=O)c1cccc(N)c1 [3-aminobenzamide]
remaining activity at 1.25 µM ([1]; Well no.=199): 101% | remaining activity at 3.75 µM ([2]; Well no.=199): 98.8%

Nc1nccc2c1ncn2[C@@H]1O[C@H](CO)[C@@H](O)[C@H]1O [3-deazaadenosine]
remaining activity at 1.25 µM ([1]; Well no.=488): 94.5% | remaining activity at 3.75 µM ([2]; Well no.=488): 95.2%

CCCn1c(=O)[nH]c(=O)c2[nH]cnc21 [3-n-Propylxanthine]
remaining activity at 1.25 µM ([1]; Well no.=910): 105% | remaining activity at 3.75 µM ([2]; Well no.=910): 104%

Cc1cc2cc3c(C)cc(=O)oc3c(C)c2o1 [4,5',8-Trimethylpsoralen]
remaining activity at 1.25 µM ([1]; Well no.=3420): 99.6% | remaining activity at 3.75 µM ([2]; Well no.=3420): 95.9%

CC(=O)CC(=O)CCC(=O)O [4,6-Dioxoheptanoic acid]
remaining activity at 1.25 µM ([1]; Well no.=7261): 102% | remaining activity at 3.75 µM ([2]; Well no.=7261): 102%

O=[N+]([O-])c1ccc(Nc2nc(N3CCOCC3)nc(N3CCOCC3)n2)cc1 [4,6-di(4-morpholinyl)-N-(4-nitrophenyl)-1,3,5-triazin-2-amine]
remaining activity at 1.25 µM ([1]; Well no.=6018): 94.4% | remaining activity at 3.75 µM ([2]; Well no.=6018): 92.3%

CC1(C)CC(=O)C2=C(C1)NC(=S)NC2c1cccc(O)c1 (stereo not shown) [4-(3-hydroxyphenyl)-7,7-dimethyl-2-thioxo-2,3,4,6,7,8-hexahydro-5(1H)-quinazolinone]
remaining activity at 1.25 µM ([1]; Well no.=5634): 94.5% | remaining activity at 3.75 µM ([2]; Well no.=5634): 95.1%

Cc1ccc(-c2n[nH]c3c2C(c2cccc(O)c2)N(c2ccc(C(=O)O)cc2)C3=O)cc1 (stereo not shown) [4-(4-(3-hydroxyphenyl)-3-(4-methylphenyl)-6-oxo-4,6-dihydropyrrolo[3,4-c]pyrazol-5(1H)-yl)benzoic acid]
remaining activity at 1.25 µM ([1]; Well no.=5969): 100% | remaining activity at 3.75 µM ([2]; Well no.=5969): 97.4%

CN1c2cc3c(cc2N=C(c2ccc(C(=O)O)cc2)c2ccccc21)C(C)(C)CCC3(C)C [4-(5,7,7,10,10-pentamethyl-7,8,9,10-tetrahydro-5H-naphtho[2,3-b][1,4]benzodiazepin-13-yl)benzoic acid]
remaining activity at 1.25 µM ([1]; Well no.=5556): 104% | remaining activity at 3.75 µM ([2]; Well no.=5556): 100%

O=C(O)c1ccc(SC2=NS(=O)(=O)c3ccccc32)cc1 [4-((1,1-dioxidobenzo[d]isothiazol-3-yl)thio)benzoic acid]
remaining activity at 1.25 µM ([1]; Well no.=5526): 97.8% | remaining activity at 3.75 µM ([2]; Well no.=5526): 102%
